How the values were obtained:
CtNcs2 = biological target: T1, CtNcs2 (Thermochaetoides thermophila, UniProt G0SFJ9); assay: thermal shift assay (SYPRO Orange); format: binding; conditions: 2 mM MgCl2, 20 mM Tris pH 8, 150 mM NaCl, 1 mM DTT
T1 construct: gene NCS2; codon-optimized, E. coli BL21(DE3) pRARE, pETM30 N-terminal 6xHis-GST tag (TEV-cleavable, optionally cleaved), GSTrap, heparin, size exclusion
T1 sequence (G0SFJ9 1-406): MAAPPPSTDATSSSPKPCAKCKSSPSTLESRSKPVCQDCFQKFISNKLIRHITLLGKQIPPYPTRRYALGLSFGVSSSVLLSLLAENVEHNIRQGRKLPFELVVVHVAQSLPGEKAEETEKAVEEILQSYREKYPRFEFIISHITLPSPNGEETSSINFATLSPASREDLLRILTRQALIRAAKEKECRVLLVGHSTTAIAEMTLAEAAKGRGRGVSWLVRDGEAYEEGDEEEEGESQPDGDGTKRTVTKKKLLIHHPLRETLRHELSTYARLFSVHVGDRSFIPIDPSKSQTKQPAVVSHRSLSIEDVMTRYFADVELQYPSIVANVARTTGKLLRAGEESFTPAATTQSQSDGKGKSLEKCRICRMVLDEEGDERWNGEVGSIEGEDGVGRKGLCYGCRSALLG

[1] = biological target: Ncs6 (Needs-Cla4-to-Survive 6), S. cerevisiae (S. cerevisiae, UniProt P53088 1-359); assay: two-hybrid; conditions: partners not purified
Chain of Ncs6 (Needs-Cla4-to-Survive 6), S. cerevisiae (P53088 whole entry): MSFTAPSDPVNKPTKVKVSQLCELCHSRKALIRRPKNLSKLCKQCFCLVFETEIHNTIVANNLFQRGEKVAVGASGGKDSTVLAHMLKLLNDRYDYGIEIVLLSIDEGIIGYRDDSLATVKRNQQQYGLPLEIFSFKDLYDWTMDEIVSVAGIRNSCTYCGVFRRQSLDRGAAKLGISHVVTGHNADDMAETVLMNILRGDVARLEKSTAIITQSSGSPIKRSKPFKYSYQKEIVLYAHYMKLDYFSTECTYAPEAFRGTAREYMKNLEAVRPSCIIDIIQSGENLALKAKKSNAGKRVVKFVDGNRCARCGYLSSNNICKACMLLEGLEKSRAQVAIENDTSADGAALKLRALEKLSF

With `Nc1ncnc2c1ncn2[C@@H]1O[C@H](COP(=O)(O)OP(=O)(O)O)[C@@H](O)[C@H]1O` [ADP] the melting temperature (CtNcs2; 1 mM ADP) was “stability of Ncs2 increases significantly, when it is bound to ATP, ADP or the non-hydrolysable AMP-PNP”.

For `Nc1ncnc2c1ncn2[C@@H]1O[C@H](COP(=O)(O)OP(=O)(O)NP(=O)(O)O)[C@@H](O)[C@H]1O` [AMP-PNP], the melting temperature (CtNcs2; 1 mM AMP-PNP) was “stability of Ncs2 increases significantly, when it is bound to ATP, ADP or the non-hydrolysable AMP-PNP”.

In the case of `Nc1ncnc2c1ncn2[C@@H]1O[C@H](COP(=O)(O)OP(=O)(O)OP(=O)(O)O)[C@@H](O)[C@H]1O` [ATP], the melting temperature (CtNcs2; 1 mM ATP) is reported as “stability of Ncs2 increases significantly, when it is bound to ATP, ADP or the non-hydrolysable AMP-PNP”.

B1: Ncs2* (Ncs2 H71L), S. cerevisiae (natural protein)
chain: MECQRCPASARNPATVESRKEKFCDECFIKFVSTKQRKQMMKDEYFRNLFKVIYPFEKEGSVSKILLPLSLSDSGSLVMLDIVHDLLLEQTKQHNNRTGFTVDVLTVFTEENVSVIKERMESLINEKMSQLNKISNIFNVHFIDVNEFFNNASEVSTFIIDNENFEIFSKSKSVDDSNILTLKEILGKYCLNNSSRSDLISIIKTQLIKHFAYENGYNAIMWGHSMTKLSEVIISLVVKGKGSQIATFLDSESFDTLNNKPCKYKNLYPMKDLLSVEIESFLQIRNLAQFLINVEETNVKPNCLIARKSLPSLGQQKLVKNMTINEITNKYFQDIQNDYSNIISTVLRTADKLTQPKSSMAKPSQCQICQSKIYTNPSNWLNRITVTSPYPVETTEEKYLFKQWQDSKLGQSHTHYVELLNEIKQGASNSLDVEDGDVKLCYGCLILLNTSIKDKNLVWPKVDTMDITANATNKNKELSQILDQFEINSDGEE
B1 was tested, and the “Miller units (beta-galactosidase, two-hybrid)” value (“Miller units” for short) [1] was 252 MU.

B2: Ncs2^H71I, S. cerevisiae (natural protein)
chain: MECQRCPASARNPATVESRKEKFCDECFIKFVSTKQRKQMMKDEYFRNLFKVIYPFEKEGSVSKILLPLSISDSGSLVMLDIVHDLLLEQTKQHNNRTGFTVDVLTVFTEENVSVIKERMESLINEKMSQLNKISNIFNVHFIDVNEFFNNASEVSTFIIDNENFEIFSKSKSVDDSNILTLKEILGKYCLNNSSRSDLISIIKTQLIKHFAYENGYNAIMWGHSMTKLSEVIISLVVKGKGSQIATFLDSESFDTLNNKPCKYKNLYPMKDLLSVEIESFLQIRNLAQFLINVEETNVKPNCLIARKSLPSLGQQKLVKNMTINEITNKYFQDIQNDYSNIISTVLRTADKLTQPKSSMAKPSQCQICQSKIYTNPSNWLNRITVTSPYPVETTEEKYLFKQWQDSKLGQSHTHYVELLNEIKQGASNSLDVEDGDVKLCYGCLILLNTSIKDKNLVWPKVDTMDITANATNKNKELSQILDQFEINSDGEE
In the case of B2, the “Miller units” value [1] is reported as 109 MU.

B3: Ncs2^H71A, S. cerevisiae (natural protein)
chain: MECQRCPASARNPATVESRKEKFCDECFIKFVSTKQRKQMMKDEYFRNLFKVIYPFEKEGSVSKILLPLSASDSGSLVMLDIVHDLLLEQTKQHNNRTGFTVDVLTVFTEENVSVIKERMESLINEKMSQLNKISNIFNVHFIDVNEFFNNASEVSTFIIDNENFEIFSKSKSVDDSNILTLKEILGKYCLNNSSRSDLISIIKTQLIKHFAYENGYNAIMWGHSMTKLSEVIISLVVKGKGSQIATFLDSESFDTLNNKPCKYKNLYPMKDLLSVEIESFLQIRNLAQFLINVEETNVKPNCLIARKSLPSLGQQKLVKNMTINEITNKYFQDIQNDYSNIISTVLRTADKLTQPKSSMAKPSQCQICQSKIYTNPSNWLNRITVTSPYPVETTEEKYLFKQWQDSKLGQSHTHYVELLNEIKQGASNSLDVEDGDVKLCYGCLILLNTSIKDKNLVWPKVDTMDITANATNKNKELSQILDQFEINSDGEE
For B3, the “Miller units” value [1] was 130 MU.

Source: PMC10450187, “Ncs2* mediates in vivo virulence of pathogenic yeast through sulphur modification of cytoplasmic transfer RNA” (Nucleic Acids Research, 2023)
